Activity, Drug uptake and IC50 data for one compound are collected here from ChEMBL document CHEMBL3046219, “Inhibitive Effect of Prodigiosin on the Proliferation of Human Malignant Pancreatic Cancer Cells” (Med Chem Res, 2005).

Calls of active or inactive are those of the source. The rule behind the calls is not given here.

A short description of data set [1]: Cytotoxicity against Homo sapiens (human) H8898 cells assessed as reduction in cell viability at 50 umol after 12 hr by MTT assay. It is filed as functional. A general note: Formazan colour is commonly taken as a measure of viable cells.
The species entered for data set [2] is Homo sapiens. Briefly: Induction of DNA fragmentation in Homo sapiens (human) H8898 cells at 12.5 umol after 24 hr by agarose gel electrophoresis. It is filed as functional.
Data set [3] is filed under the species Homo sapiens. The data set can be described thus: Inhibition of clone formation in Homo sapiens (human) H8898 cells after 5 days using trypan blue staining by inverted microscopy. The format is functional.
A short description of data set [4]: Drug uptake in Homo sapiens (human) H8898 cells after 24 hr by HPLC analysis. The format is ADME.
Data set [5] in a line: Cytotoxicity against Homo sapiens (human) H8898 cells assessed as reduction in cell viability at 25 umol after 12 hr by MTT assay. The format is functional.
The species named for data set [6] is Homo sapiens. The data set can be described thus: Induction of oxidative stress in Homo sapiens (human) H8898 cells assessed as increase in intracellular ROS level after 12 hr using CDCFH-DA by spectrophotometry. It is filed as functional, cell-based.
A short description of data set [7]: (§1) Cytotoxicity against Homo sapiens (human) H8898 cells assessed as reduction in cell viability after 12 hr by MTT assay. The format is functional, cell-based.
For data set [8], the species on record is Homo sapiens. The description is as §1. The format is functional, cell-based.
The species named for data set [9] is Homo sapiens. The data set can be described thus: Antiproliferative activity against Homo sapiens (human) H8898 cells after 5 days using trypan blue staining by hemocytometry. The format is functional.
Data set [10] in a line: Cell cycle arrest in Homo sapiens (human) H8898 cells assessed as increase in G0-G1 phase cells at 12 to 50 umol after 24 hr by flow cytometry. The format is functional, cell-based. Background: In flow cytometry, cells or beads pass a laser one at a time.
Data set [11] in a line: Cytotoxicity against Homo sapiens (human) H8898 cells assessed as reduction in cell viability at 50 umol after 8 to 12 hr by MTT assay. It is filed as functional.
The species entered for data set [12] is Homo sapiens. The data set can be described thus: Induction of apoptosis in Homo sapiens (human) H8898 cells at 12.5 to 50 umol after 24 hr by FACS analysis. The format is functional.
The species entered for data set [13] is Homo sapiens. Briefly: Cytotoxicity against Homo sapiens (human) H8898 cells assessed as reduction in cell viability at 50 umol at 12 hr by MTT assay. The format is functional, cell-based.
A short description of data set [14]: Cell cycle arrest in Homo sapiens (human) H8898 cells assessed as retardation at G1/S phase at 12 to 50 umol after 24 hr by flow cytometry. It is filed as functional.
The species named for data set [15] is Homo sapiens. Briefly: Induction of apoptosis in Homo sapiens (human) H8898 cells assessed as cytoplasm leakage into membrane bound vesicles at 12.5 umol after 12 hr by microscopy. It is filed as functional.
The species entered for data set [16] is Homo sapiens. Briefly: Cytotoxicity against Homo sapiens (human) H8898 cells assessed as reduction in cell viability at 50 umol by MTT assay. It is filed as functional, cell-based. As to conditions: TDE = time-dependent effect.
The species entered for data set [17] is Homo sapiens. Briefly: Cytotoxicity against Homo sapiens (human) H8898 cells assessed as reduction in cell viability at 50 umol after 2 days by MTT assay. The format is functional, cell-based.
Data set [18] is described as follows: Cell cycle arrest in Homo sapiens (human) H8898 cells assessed as reduction in S phase cells at 12 to 50 umol after 24 hr by flow cytometry. The format is functional, cell-based.
For data set [19], the species on record is Homo sapiens. Briefly: Induction of DNA fragmentation in Homo sapiens (human) H8898 cells at 50 umol after 24 hr by agarose gel electrophoresis. It is filed as functional.
For data set [20], the species on record is Homo sapiens. The data set can be described thus: Cytotoxicity against Homo sapiens (human) H8898 cells assessed as reduction in cell viability at 50 umol up to 5 days by MTT assay. It is filed as functional, cell-based.
For data set [21], the species on record is Homo sapiens. The data set can be described thus: Induction of apoptosis in Homo sapiens (human) H8898 cells assessed as cell compaction at 12.5 umol after 12 hr by microscopy. It is filed as functional.

Turning to `CCCCCC1=C/C(=C/c2[nH]c(-c3ccc[nH]3)cc2OC)N=C1C` [PRODIGIOSIN], the Activity in data set [1] was 34%; in data set [5] it was 5.6%; in the data set filed under Homo sapiens [6], “Dose-dependent effect”; in the data set listed under Homo sapiens [8], “Dose-dependent effect”; in [11], 28%; in the data set listed under Homo sapiens [16] it was “tde”. Also, the result (in the data set listed under Homo sapiens [2]; in the data set listed under Homo sapiens [3]; in the data set filed under Homo sapiens [9]; in [10]; in the data set filed under Homo sapiens [12]; in the data set listed under Homo sapiens [13]) was Active. Further, the result (in data set [14]; in the data set listed under Homo sapiens [15]; in the data set filed under Homo sapiens [17]; in data set [18]; in the data set filed under Homo sapiens [19]; in the data set filed under Homo sapiens [20]) was Active. Moreover, the outcome in the data set filed under Homo sapiens [21] was Active. Further, the Drug uptake result in data set [4] is listed as “Dose-dependent effect”. The IC50 (in general, the concentration that inhibits the measured activity by half) in data set [7] came to 75 µM.
